In test [1] the target is Stromelysin-2 (Homo sapiens) (UniProt P09238). As to the kind of experiment: Inhibition of human MMP10 using Mca-Pro-Leu-Gly-Leu-Dpa-Ala-Arg-NH2 as substrate by spectrophotometry.
Test [2] concerns the target T1, Macrophage metalloelastase (Homo sapiens, UniProt P39900). As to the kind of experiment: Binding affinity to human MMP12 catalytic domain (98 to 266) by isothermal titration calorimetry. In general terms: ITC needs no label: the signal is the heat of the interaction.
Target sequence in this assay (P39900 whole entry, the tested form may be a part): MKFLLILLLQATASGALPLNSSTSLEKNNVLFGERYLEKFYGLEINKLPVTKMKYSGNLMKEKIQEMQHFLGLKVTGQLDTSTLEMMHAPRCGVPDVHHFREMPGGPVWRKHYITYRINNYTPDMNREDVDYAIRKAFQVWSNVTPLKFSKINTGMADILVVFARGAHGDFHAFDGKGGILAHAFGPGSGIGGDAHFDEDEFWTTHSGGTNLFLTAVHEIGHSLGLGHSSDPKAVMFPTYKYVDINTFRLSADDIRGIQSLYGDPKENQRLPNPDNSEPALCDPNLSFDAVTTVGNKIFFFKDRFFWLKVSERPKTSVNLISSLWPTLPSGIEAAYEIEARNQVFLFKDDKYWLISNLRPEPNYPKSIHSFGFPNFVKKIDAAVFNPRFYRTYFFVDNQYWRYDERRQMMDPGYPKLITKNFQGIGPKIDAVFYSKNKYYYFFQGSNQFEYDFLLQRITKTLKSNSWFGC
The target of test [3] is Stromelysin-1 (Homo sapiens) (UniProt P08254). As to the kind of experiment: Inhibition of human MMP3 using Mca-Pro-Leu-Gly-Leu-Dpa-Ala-Arg-NH2 as substrate by spectrophotometry.
The target in test [4] is T1, Macrophage metalloelastase. As to the kind of experiment: Inhibition of human MMP12 catalytic domain (98 to 266) at pH 6 to 7 by isothermal titration calorimetry.
Target sequence in this assay (P39900 106-470 limits assumed): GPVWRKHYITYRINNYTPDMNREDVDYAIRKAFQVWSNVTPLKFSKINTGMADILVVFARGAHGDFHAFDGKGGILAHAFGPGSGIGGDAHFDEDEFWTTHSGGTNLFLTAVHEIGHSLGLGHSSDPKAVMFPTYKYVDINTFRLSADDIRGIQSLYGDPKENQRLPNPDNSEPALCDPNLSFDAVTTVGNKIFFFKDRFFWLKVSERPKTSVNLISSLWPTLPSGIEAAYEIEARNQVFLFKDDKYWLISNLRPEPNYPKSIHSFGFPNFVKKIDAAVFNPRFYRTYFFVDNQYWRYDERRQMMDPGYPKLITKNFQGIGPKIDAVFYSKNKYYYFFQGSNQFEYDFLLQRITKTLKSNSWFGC
Test [5] addresses Matrix metalloproteinase-9 (Homo sapiens) (UniProt P14780). As to the kind of experiment: Inhibition of human MMP9 using Mca-Pro-Leu-Gly-Leu-Dpa-Ala-Arg-NH2 as substrate by spectrophotometry.
Test [6] deals with Collagenase 3 (Homo sapiens) (UniProt P45452). As to the kind of experiment: Inhibition of human MMP13 prodomain (20 to 272) using Mca-Pro-Leu-Gly-Leu-Dpa-Ala-Arg-NH2 as substrate by spectrophotometry.
The target of test [7] is 72 kDa type IV collagenase (Homo sapiens) (UniProt P08253). Kind of test: Inhibition of human MMP2 using Mca-Pro-Leu-Gly-Leu-Dpa-Ala-Arg-NH2 as substrate by spectrophotometry.
In test [8] the target is Matrix metalloproteinase-14 (Homo sapiens) (UniProt P50281). As to the kind of experiment: Inhibition of human MMP14 using Mca-Pro-Leu-Gly-Leu-Dpa-Ala-Arg-NH2 as substrate by spectrophotometry.
In test [9] the target is Neutrophil collagenase (Homo sapiens) (UniProt P22894). As to the kind of experiment: Inhibition of human MMP8 catalytic domain (21 to 261) using Mca-Pro-Leu-Gly-Leu-Dpa-Ala-Arg-NH2 as substrate by spectrophotometry.
The target of test [10] is T1, Macrophage metalloelastase. Kind of test: Inhibition of human MMP12 catalytic domain (98 to 266) at pH 6.8 by isothermal titration calorimetry.
Target sequence in this assay (P39900 whole entry, the tested form may be a part): as the sequence (P39900 whole entry, the tested form may be a part) above

The source made the active and inactive calls. The rule behind the calls is not given here.

As usually defined, the Ki is a dissociation constant, usually derived from enzyme kinetics or from competition with a known ligand.

Stromelysin-1 (Homo sapiens), sequence (P08254 100-477 limits assumed): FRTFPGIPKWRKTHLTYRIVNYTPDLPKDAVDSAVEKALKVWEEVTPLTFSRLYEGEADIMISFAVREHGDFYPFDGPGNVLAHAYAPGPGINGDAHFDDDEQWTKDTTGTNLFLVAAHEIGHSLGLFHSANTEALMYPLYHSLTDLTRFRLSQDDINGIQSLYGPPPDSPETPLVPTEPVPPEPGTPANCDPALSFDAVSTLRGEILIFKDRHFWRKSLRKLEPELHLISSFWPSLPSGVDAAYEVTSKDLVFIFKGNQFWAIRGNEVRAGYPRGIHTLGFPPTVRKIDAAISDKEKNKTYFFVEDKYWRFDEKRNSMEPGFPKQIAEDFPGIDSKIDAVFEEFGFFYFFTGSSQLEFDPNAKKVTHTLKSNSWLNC
Stromelysin-2 (Homo sapiens), sequence (P09238 99-476 limits assumed): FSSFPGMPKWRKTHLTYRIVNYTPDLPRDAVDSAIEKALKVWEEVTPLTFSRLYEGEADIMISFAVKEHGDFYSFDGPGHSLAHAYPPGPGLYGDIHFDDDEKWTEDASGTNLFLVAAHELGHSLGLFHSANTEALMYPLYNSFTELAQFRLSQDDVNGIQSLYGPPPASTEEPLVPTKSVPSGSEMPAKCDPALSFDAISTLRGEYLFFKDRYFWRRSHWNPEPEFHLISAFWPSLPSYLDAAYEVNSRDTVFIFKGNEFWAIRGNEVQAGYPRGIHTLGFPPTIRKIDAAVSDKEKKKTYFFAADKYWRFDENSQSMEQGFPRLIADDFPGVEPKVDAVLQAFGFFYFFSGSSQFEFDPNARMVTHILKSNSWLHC
72 kDa type IV collagenase (Homo sapiens), sequence (P08253 110-660 limits assumed): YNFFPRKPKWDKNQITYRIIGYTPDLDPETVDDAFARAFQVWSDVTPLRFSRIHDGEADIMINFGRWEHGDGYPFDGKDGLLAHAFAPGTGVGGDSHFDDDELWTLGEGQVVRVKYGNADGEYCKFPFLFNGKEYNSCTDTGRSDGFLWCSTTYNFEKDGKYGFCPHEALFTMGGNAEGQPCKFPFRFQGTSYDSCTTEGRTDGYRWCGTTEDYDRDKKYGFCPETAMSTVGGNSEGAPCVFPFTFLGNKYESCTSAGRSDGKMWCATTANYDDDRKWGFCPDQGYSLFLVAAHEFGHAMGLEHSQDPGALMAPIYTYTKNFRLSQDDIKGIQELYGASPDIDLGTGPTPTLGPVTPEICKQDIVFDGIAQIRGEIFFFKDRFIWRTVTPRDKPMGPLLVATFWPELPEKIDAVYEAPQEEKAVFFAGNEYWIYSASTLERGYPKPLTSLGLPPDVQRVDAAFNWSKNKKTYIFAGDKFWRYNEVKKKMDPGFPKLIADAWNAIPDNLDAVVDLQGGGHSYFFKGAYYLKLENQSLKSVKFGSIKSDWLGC
Neutrophil collagenase (Homo sapiens), sequence (P22894 101-467 limits assumed): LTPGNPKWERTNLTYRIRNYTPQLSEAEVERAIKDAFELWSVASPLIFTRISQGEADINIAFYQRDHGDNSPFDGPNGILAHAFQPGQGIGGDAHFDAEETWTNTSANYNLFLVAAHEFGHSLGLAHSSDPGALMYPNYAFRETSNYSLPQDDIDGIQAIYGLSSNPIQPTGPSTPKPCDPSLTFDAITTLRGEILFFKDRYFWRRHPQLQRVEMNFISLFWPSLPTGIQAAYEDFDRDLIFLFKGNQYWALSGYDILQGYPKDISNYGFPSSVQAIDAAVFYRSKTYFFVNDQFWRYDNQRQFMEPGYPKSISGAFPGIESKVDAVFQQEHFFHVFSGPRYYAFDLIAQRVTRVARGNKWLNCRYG
Matrix metalloproteinase-9 (Homo sapiens), sequence (P14780 whole entry): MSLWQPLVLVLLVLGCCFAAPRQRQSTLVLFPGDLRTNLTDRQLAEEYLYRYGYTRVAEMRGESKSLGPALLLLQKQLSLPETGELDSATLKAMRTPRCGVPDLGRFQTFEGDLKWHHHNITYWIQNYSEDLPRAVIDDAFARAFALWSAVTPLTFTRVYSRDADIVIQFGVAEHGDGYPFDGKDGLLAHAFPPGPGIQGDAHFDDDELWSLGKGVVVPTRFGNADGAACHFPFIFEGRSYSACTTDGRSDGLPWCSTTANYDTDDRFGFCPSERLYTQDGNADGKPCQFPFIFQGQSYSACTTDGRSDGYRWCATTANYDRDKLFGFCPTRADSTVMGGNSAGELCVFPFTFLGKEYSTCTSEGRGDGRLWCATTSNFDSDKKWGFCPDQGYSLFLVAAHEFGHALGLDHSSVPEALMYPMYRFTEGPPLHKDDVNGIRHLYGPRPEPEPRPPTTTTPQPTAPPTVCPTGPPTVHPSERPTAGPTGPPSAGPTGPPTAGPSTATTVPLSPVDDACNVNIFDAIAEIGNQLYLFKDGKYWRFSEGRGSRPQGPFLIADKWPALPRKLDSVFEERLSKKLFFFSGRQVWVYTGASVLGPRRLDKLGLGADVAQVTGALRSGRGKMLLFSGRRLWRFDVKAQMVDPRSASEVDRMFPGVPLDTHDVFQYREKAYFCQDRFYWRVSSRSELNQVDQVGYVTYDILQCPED

Turning to `C[C@H](NC(=O)[C@H](C)NC(=O)[C@H](Cc1cc(-c2ccccc2)no1)CP(=O)(O)c1ccc(Br)cc1)C(N)=O`, the inhibition entry in test [1], in test [3] and in [4] was “Active” throughout. The Ki in [2] was determined as 14.7 nM.
For `NC(=O)[C@H](CCC(=O)O)NC(=O)[C@H](CCC(=O)O)NC(=O)[C@H](Cc1cc(-c2ccccc2)no1)CP(=O)(O)c1ccc(Br)cc1`, the inhibition result in [1], in [3], in test [5], in test [6], in test [7] and in [8] was “Active” in each case. Also, in [9], the inhibition entry was “Active”. For the same molecule, the Ki in test [2] came to 15.5 nM.
For the molecule `C[C@H](NC(=O)[C@H](C)NC(=O)[C@H](Cc1cc(-c2ccc(-c3cccc(Cl)c3)cc2)no1)CP(=O)(O)c1ccc(Br)cc1)C(N)=O`, the inhibition result in test [1], in [5] and in [7] was “Active” in each case. The molecule further displayed an inhibition constant Ki in [2] of 0.28 nM. Also, the inhibition result in test [3], in [6], in test [8] and in test [9] was “inactive” in each case.
Turning to `NC(=O)[C@H](CCC(=O)O)NC(=O)[C@H](CCC(=O)O)NC(=O)[C@H](Cc1cc(-c2ccc(-c3cccc(Cl)c3)cc2)no1)CP(=O)(O)c1ccc(Br)cc1`, the inhibition entry in test [1] and in [3] was “Active” each time. In test [4], this molecule displayed an INH of 0.044 nM. Also, the Ki in test [10] is 0.24 nM.
